Measured values: publication PMC8510344, “Bile-Acid-Appended Triazolyl Aryl Ketones: Design, Synthesis, In Vitro Anticancer Activity and Pharmacokinetics in Rats” (Molecules, 2021)

Key:
[1] = system: Human cervix cancer cell line (HeLa); set-up: method as in PMID 23884119, PMID 25476168, PMID 30220830, PMID 23584541, PMID 28158265; details: literature example of Figure 1, cited from earlier work
[2] = system: MCF-7 (human breast adenocarcinoma) cells; experiment: MTT cytotoxicity assay, MCF-7; assay type: cell-based; details: Homo sapiens, MCF7, 10 µM, 48 h exposure, read-out: % Cell Viability at 10 µM MCF-7
Method: (§1) The cytotoxicity activity of all the conjugates (6aa–6df) was evaluated in vitro by MTT assay against two different breast cancer cell lines 4T1 (murine) and MCF-7 (human) and HEK 293 (human) as normal cell line. DTX was used as positive control. Cells were grown in DMEM supplemented with 10% FBS and 1% antibiotic solution and incubated at 5% CO2 and 37 °C for 24 h. The stock solutions of all the conjugates were prepared in DMSO and diluted for further use. Briefly, 5 × 10^3 cells/well were seeded in 96-well cell culture plates and allowed to adhere for 24 h. Cell inhibition (%) was determined after 48 h exposure to the compounds at 1–25 μM concentration. After 48 h, MTT assay was performed and the yellow tetrazolium salt (MTT) was reduced in metabolically active cells to form insoluble purple formazan crystals, which were solubilized by the addition of DMSO. The optical density (OD) was recorded at 560 nm and 630 nm as reference wavelength. Percentage cell inhibition was determined by comparison with untreated cells.

[3] = MTT cytotoxicity assay, normal cell line HEK 293; assay type: cell-based; details: human, HEK 293 cells, HEK 293 normal cells, 48 h exposure
Method: as §1

[4] = system: 4T1 (mouse mammary carcinoma) cells; experiment: MTT cytotoxicity assay, 4T1; assay type: cell-based; details: for viability at 10 µM: 48 h exposure, read-out: % Cell Viability at 10 µM 4T1; for IC50: 48 h
Method: as §1

[5] = system: MCF-7 cells; experiment: Annexin V/PI apoptosis assay by flow cytometry, MCF-7; assay type: cell-based, human; details: 6af at 2.61 µM, 6cf at 5.71 µM (respective IC50), 48 h
Method: (§2) The extent of apoptosis induced by compounds 6af and 6cf in MCF-7 and 4T1 cells was quantified by flow cytometry according to the manufacturer’s protocol. Briefly, cells were seeded in a 6-well plate at a cell density of 1 × 10^6 cells/well. After 24 h, the media was discarded and cells were treated with fresh media containing compounds 6af and 6cf at their respective IC50 concentrations for 48 h. After treatment, cells were trypsinized, harvested in PBS and collected by centrifugation for 5 min at 2000 rpm. Cells were then resuspended in 1X binding buffer and stained with FITC-labeled Annexin V Alexa Fluor 488 (5 μL) and propidium iodide (10 μL). Cells were analyzed using flow cytometer (Beckman Coulter), and data were analyzed with CytExpert software.

[6] = system: 4T1 cells; experiment: Annexin V/PI apoptosis assay by flow cytometry, 4T1; assay type: cell-based, mouse; details: 6af at 12.84 µM, 6cf at 8.76 µM (respective IC50), 48 h
Method: as §2

SMILES	% Growth Inhibition at 30 μM HeLa [1] [%]	melting point [°C]	viability at 10 µM [2] [%]	viability at 48 h, 10 µM [3] [%]	viability at 10 µM ([4]; Mus musculus) [%]	IC50 [1] [µM]	apoptosis (total) in MCF-7 cells [5] [%]	IC50 [4] [µM]	IC50 ([4]; Mus musculus) [µM]	total apoptosis in 4T1 cells [6] [%]
Cc1cccc(-c2cn(CC3CC4C5CC=C6CC(O)CCC6(C)C5CCC4(C)C3O)nn2)c1 (stereo not drawn) [II]	96.9									
Cc1ccc(C(=O)Cn2cc(CNC(=O)CC[C@@H](C)C3CCC4C5CCC6C[C@H](O)CC[C@]6(C)C5C[C@H](O)[C@@]43C)nn2)cc1 (stereo partly drawn) [6db, (4R)-4-((3R,10S,12S,13R)-3,12-Dihydroxy-10,13-dimethylhexadecahydro-1H-cyclopenta[a]phenanthren-17-yl)-N-((1-(2-oxo-2-(p-tolyl)ethyl)-1H-1,2,3-triazol-4-yl)methyl)pentanamide]		112 to 115	78.7	89.4	53.7					
C[C@H](CCC(=O)OCc1cn(CC(=O)c2ccc(Cl)cc2)nn1)C1CCC2C3CCC4C[C@H](O)CC[C@]4(C)C3C[C@H](O)[C@@]21C (stereo partly drawn) [6be, (1-(2-(4-Chlorophenyl)-2-oxoethyl)-1H-1,2,3-triazol-4-yl)methyl (4R)-4-((3R,10S,12S,13R)-3,12-dihydroxy-10,13-dimethylhexadecahydro-1H-cyclopenta[a]phenanthren-17-yl)pentanoate]		92 to 93	68.5	88.4	76					
C[C@H](CCC(=O)OCc1cn(CC(=O)c2ccccc2)nn1)C1CCC2C3CCC4C[C@H](O)CC[C@]4(C)C3C[C@H](O)[C@@]21C (stereo partly drawn) [6ba, (1-(2-Oxo-2-phenylethyl)-1H-1,2,3-triazol-4-yl)methyl (4R)-4-((3R,10S,12S,13R)-3,12-dihydroxy-10,13-dimethylhexadecahydro-1H-cyclopenta[a]phenanthren-17-yl)pentanoate]		143 to 144	91.9	88.9	97.8					
COc1ccc2c(c1)CCC1C2CCC2(C)C(O)C(n3cc(-c4ccc(C(C)(C)C)cc4)nn3)CC12 (stereo not drawn) [IV]						5.08				
C[C@H](CCC(=O)OCc1cn(CC(=O)c2ccc(Cl)cc2)nn1)C1CCC2C3C(C[C@H](O)[C@@]21C)[C@@]1(C)CC[C@@H](O)CC1C[C@H]3O (stereo partly drawn) [6ae, (1-(2-(4-Chlorophenyl)-2-oxoethyl)-1H-1,2,3-triazol-4-yl)methyl (4R)-4-((3R,7R,10S,12S,13R)-3,7,12-trihydroxy-10,13-dimethylhexadecahydro-1H-cyclopenta[a]phenanthren-17-yl)pentanoate]		153 to 154	79.6	96.2	58.9					
C[C@H](CCC(=O)NCc1cn(CC(=O)c2ccc(F)cc2)nn1)C1CCC2C3CCC4C[C@H](O)CC[C@]4(C)C3C[C@H](O)[C@@]21C (stereo partly drawn) [6dd, (4R)-4-((3R,10S,12S,13R)-3,12-Dihydroxy-10,13-dimethylhexadecahydro-1H-cyclopenta[a]phenanthren-17-yl)-N-((1-(2-(4-fluorophenyl)-2-oxoethyl)-1H-1,2,3-triazol-4-yl)methyl)pentanamide]		126 to 127	73.8	81.6	89.9					
C[C@H](CCC(=O)OCc1cn(CC(=O)c2ccc(Br)cc2)nn1)C1CCC2C3C(C[C@H](O)[C@@]21C)[C@@]1(C)CC[C@@H](O)CC1C[C@H]3O (stereo partly drawn) [6af, (1-(2-(4-Bromophenyl)-2-oxoethyl)-1H-1,2,3-triazol-4-yl)methyl (4R)-4-((3R,7R,10S,12S,13R)-3,7,12-trihydroxy-10,13-dimethylhexadecahydro-1H-cyclopenta[a]phenanthren-17-yl)pentanoate]		159 to 160	26.5	> 86	55.9		33.89	12.8 ± 1.8	< 19	19.02
C[C@H](CCC(=O)NCc1cn(CC(=O)c2ccccc2)nn1)C1CCC2C3CCC4C[C@H](O)CC[C@]4(C)C3C[C@H](O)[C@@]21C (stereo partly drawn) [6da, (4R)-4-((3R,10S,12S,13R)-3,12-Dihydroxy-10,13-dimethylhexadecahydro-1H-cyclopenta[a]phenanthren-17-yl)-N-((1-(2-oxo-2-phenylethyl)-1H-1,2,3-triazol-4-yl)methyl)pentanamide]		135 to 136	91.2	97.9	99.6					
COc1ccc(C(=O)Cn2cc(COC(=O)CC[C@@H](C)C3CCC4C5CCC6C[C@H](O)CC[C@]6(C)C5C[C@H](O)[C@@]43C)nn2)cc1 (stereo partly drawn) [6bc, (1-(2-(4-Methoxyphenyl)-2-oxoethyl)-1H-1,2,3-triazol-4-yl)methyl (4R)-4-((3R,10S,12S,13R)-3,12-dihydroxy-10,13-dimethylhexadecahydro-1H-cyclopenta[a]phenanthren-17-yl)pentanoate]		144 to 145	69.6	90.8	68.4					
CC(C)CCCC(C)C1CCC2C3CCC4CC(=O)C(n5cc(-c6ccccn6)nn5)CC4(C)C3CCC12C (stereo not drawn) [III]	43.5									
